Values of other authors as cited in US20070254941A1, “Subtantially pure ropinirole hydrochloride, polymorphic form of ropinirole and process for their preparation” (Glenmark Pharmaceuticals Limited, priority 2006, published 2007).
Where a name gives a salt, the structure may show the parent alone.

How the values were obtained:
D2 dopamine receptor = D2 dopamine receptor (Homo sapiens, UniProt P14416)
D3 dopamine receptor [1] = biological target: T1, D3 dopamine receptor (Homo sapiens, UniProt P35462)
D3 dopamine receptor [2] = biological target: T1, D3 dopamine receptor; details: D3 versus D2 or D4

T1 sequence (P35462 whole entry): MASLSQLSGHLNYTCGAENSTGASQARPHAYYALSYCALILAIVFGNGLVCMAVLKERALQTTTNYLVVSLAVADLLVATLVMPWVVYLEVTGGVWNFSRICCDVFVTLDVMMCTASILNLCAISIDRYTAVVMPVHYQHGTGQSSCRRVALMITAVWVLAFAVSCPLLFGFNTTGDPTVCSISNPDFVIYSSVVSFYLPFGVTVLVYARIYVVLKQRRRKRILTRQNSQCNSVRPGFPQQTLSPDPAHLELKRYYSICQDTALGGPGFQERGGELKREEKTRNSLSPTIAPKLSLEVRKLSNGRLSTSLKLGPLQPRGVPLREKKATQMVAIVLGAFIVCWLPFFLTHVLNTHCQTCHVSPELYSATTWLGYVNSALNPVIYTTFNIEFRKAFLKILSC
Sequence of D2 dopamine receptor (P14416 whole entry): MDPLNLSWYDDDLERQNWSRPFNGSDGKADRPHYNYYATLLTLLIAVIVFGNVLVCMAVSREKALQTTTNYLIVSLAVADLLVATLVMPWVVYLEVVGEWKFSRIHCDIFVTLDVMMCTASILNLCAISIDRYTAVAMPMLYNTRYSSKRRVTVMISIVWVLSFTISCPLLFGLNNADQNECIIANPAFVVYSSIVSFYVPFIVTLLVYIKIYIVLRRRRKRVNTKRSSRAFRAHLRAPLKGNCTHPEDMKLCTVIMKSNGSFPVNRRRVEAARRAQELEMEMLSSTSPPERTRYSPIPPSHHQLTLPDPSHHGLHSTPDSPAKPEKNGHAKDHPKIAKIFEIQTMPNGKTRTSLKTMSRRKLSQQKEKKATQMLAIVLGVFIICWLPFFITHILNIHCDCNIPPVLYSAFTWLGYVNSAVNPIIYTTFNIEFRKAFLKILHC

**Q.** For `CCCN(CCC)CCc1cccc2c1CC(=O)N2` [Ropinirole hydrochloride], which “intrinsic activity at D2 dopamine receptor subtype” value (D2 dopamine receptor) is on record?
**A.** Its value is “full intrinsic activity”.

**Q.** What about the “intrinsic activity at D3 dopamine receptor subtype” value (D3 dopamine receptor [1]) of the same compound?
**A.** Its value is “full intrinsic activity”.

**Q.** And the “affinity for D3 relative to D2 or D4 receptor subtypes” value (D3 dopamine receptor [2])?
**A.** The value was “higher affinity to D3 than to D2 or D4”.
